Data on eight compounds can be found in US20240245694A1, “Tricyclic Compounds and their Uses” (Novartis AG, priority 2022, published 2024).

Structures are written as SMILES.

Assay [1] deals with WRN helicase (core helicase motif aa N517-P1238) (Homo sapiens (Human), UniProt Q14191). The experiment in a line: WRN ATPase assay (ADP-Glo), DNA dependent ATP hydrolysis. It is filed as biochemical. To be noted: 3 hours pre-incubation, 300 micromolar ATP, FLAP26 ssDNA; geometric means of at least 2 determinations. From the text:
An ATPase assay was set up to measure the DNA dependent ATP hydrolysis activity of WRN helicase. This assay was used also to assess the inhibition properties of compounds of the invention on DNA dependent WRN ATPase activity.
The core helicase motif of the WRN protein (aa N517-P1238) was produced for this assay (protein production as described above). A 45 oligonucleotide sequence called “FLAP26” as described by Brosh et al., 2009, DOI: 10.1074/jbc.M111446200 ([…]; SEQ ID NO: 2) was purchased from IDT (Integrated DNA Technologies, Leuven, Belgium) and used as single strand DNA substrate. The ADP-Glo assay kit (Promega, Madison, WI) allowing the quantification of ADP produced in ATP hydrolysis reactions was used for setting up this assay. Time course experiments were first performed in order to determine the best enzymatic assay conditions (including buffer conditions, reaction time and concentrations of protein, ATP and DNA substrates). A typical reaction consists of 10 nM WRN protein, 0.2 nM FLAP26, and 300 micromolar ATP in the following assay buffer: 30 mM Tris pH7.5, 2 mM MgCl2, 0.02% BSA, 50 mM NaCl, 0.1% pluronic F127 prepared in DNAse free water.
To evaluate the inhibition properties of compounds of the invention, serial dilutions were prepared in DMSO (10 half log dilutions from a 10 mM DMSO solution). 50 nanoliters of each concentration was pre-incubated for 3 hours in a 384 small volume assay plate (Greiner #784075) with 2.5 microliters of a 20 nM WRN helicase protein in assay buffer with 600 micromolar ATP. Control wells were included with a “high control” (no inhibition), containing DMSO with no test compound, and “low controls” (maximal inhibition), containing buffer without protein. The reaction was started by addition of 2.5 microliters of FLAP26 at 0.4 nM and incubated for 30 minutes at room temperature. The reaction was stopped with the addition of 5 microliters of the first ADP-Glo reagent and incubated for one hour to remove the excess amount of ATP. Afterwards, 10 microliters of ATP detection reagent was added and incubated for an additional hour before reading. Luminescence output was recorded using Tecan 1000 reader, with 5 minutes delay before reading. Each concentration of compound was tested in duplicates in the assay plate.
Data analysis was carried out using an in-house developed software (Novartis Helios software application, Novartis Institutes for BioMedical Research, unpublished) using the methods described by Formenko et al., 2006, DOI: 10.1016/j.cmpb.2006.01.008. Following normalization of activity values for the wells to % inhibition (% inhibition=[(high control-sample)/(high control-low control)]×100), IC50 fitting was carried out from the duplicate determinations present on each plate according to [4]. Data analysis can also be carried out using commercially available software designed to derive IC50 values using 4-parameter fits (e.g. GraphPad Prism, XL fit). The reported IC50 values are the geometrical means of at least 2 independent replicates.
A general note: ADP-Glo turns the ADP formed in a reaction into a luminescent signal.

For assay [2], the system named is SW48 cells. Kind of assay: Proliferation assay SW48 (CellTiterGlo, 96 hours). It is filed as cell-based. Conditions: Homo sapiens. The text has this:
(§1) The colon carcinoma cell lines SW48 (RRID: CVCL_1724), HCT 116 (RRID: CVCL_0291) and SNU-407 (RRID: CVCL_5058) were obtained from ATCC. The WRN-knockdown insensitive colon carcinoma cell line DLD-1 (RRID: CVCL_0248) was obtained from the Korean Cell Line Bank (KCLB), and used to generate a derivative in which the endogenous WRN gene copies were knocked out by CRISPR-mediated editing using standard CRISPR methods. The resulting cell line, DLD1-WRN-KO, was used to assess potential off-target compound effects.
(§2) SW48, SNU-407 and DLD1-WRN-KO cells were cultured in growth medium composed of RPMI-1640 (Amimed Cat #1-41F22-1), 2 mM L-Glutamine (Amimed Cat #5-10K50), 10 mM HEPES (Gibco Cat #15630-056), 1 mM sodium pyruvate (Amimed Cat #5-60F00-H), 1× Penicillin-Streptomycin (Amimed Cat #4-01F00-H) and 10% fetal calf serum (Amimed Cat #2-01F30-G, Lot #LB11566P). HCT 116 cells were cultured in growth medium composed of McCoys 5A (Amimed catalog #1-18F01-1), 2 mM L-Glutamine (Amimed Cat #5-10K50), 1× Penicillin-Streptomycin (Amimed Cat #4-01F00-H) and 10% fetal calf serum (Amimed Cat #2-01F30-G, Lot #LB11566P). All cells were maintained at 37° C. in a humidified 5% CO2 incubator.
(§3) Following filtration through a Steriflip-NY 20 μm filter (Millipore Cat #SCNY00020), trypsinized cells were seeded in 100 microliters growth medium at 2′000 (SW48) or 1′500 (SNU-407, DLD1-WRN-KO, HCT 116) cells/well into white, clear-bottom 96-well plates (Costar Cat #3903). Three replicate plates were prepared for each compound treatment condition. In addition, one plate (termed “day 0”) was prepared to quantify the number of viable cells at the time of compound addition. Following overnight incubation at 37° C. in a humidified 5% CO2 atmosphere, eight 3-fold serial dilutions of a given compound stock (obtained at a concentration of 10 mM in DMSO and stored at 4° C.) were dispensed directly into each of the triplicate assay plates using a HP 300D non-contact Digital Dispenser (TECAN). The final concentration of DMSO was normalized to 0.1% in all wells. 96 hours after compound addition, cellular ATP levels as a surrogate for cell viability was assessed following addition of 50 microliters CellTiterGlo (Promega Cat #G7573) reagent and luminescence quantification on a MPLEX multi-mode plate-reader (TECAN) following a 10 minute incubation at room temperature. The number of viable cells in the “day 0” plate were quantified identically on the day of compound addition.
(§4) For data analysis, the assay background signal that was determined in wells containing medium, but no cells, was subtracted from all other data points prior to further calculations. The extent of growth inhibition and potential cell kill was assessed by comparing the ATP levels (measured using CellTiterGlo, Promega) in compound-treated cells with those present at the time of compound addition. To this end, the following conditional concept was programmatically applied in HELIOS, an in-house software applying a multi-step decision tree to arrive at optimal concentration response curve fits (Gubler et al, SLAS DOI: 10.1177/2472555217752140) to calculate % growth (% G) for each compound-treated well: % G=(T−V0)/V0))*100 when T<V0, and % G=(T−V0)/(V−V0)))*100 when T>V0, where V0 is the viability level at time of compound addition, while V and T represent vehicle-control and compound-treated viability levels, respectively, at the end of the compound incubation. 100%, 0% and −100% signify absence of growth inhibition, growth stasis, and complete cell kill, respectively. Compound concentrations leading to half-maximal growth inhibition (G150) and residual cell viability at the highest tested compound concentration (Data (cmax), expressed in percent) were routinely calculated. Data analysis can also be carried out using commercially available software designed to derive IC50 values using 4-parameter fits (e.g. GraphPad Prism, XL fit). […]
For orientation: Cellular ATP, detected with luciferase, serves as a proxy for viable cell number.

Assay [3] deals with DLD1-WRN-KO cells. Kind of assay: Proliferation assay DLD1-WRN-KO (CellTiterGlo, 96 hours), off-target effects. Format: cell-based. Conditions: Homo sapiens.
From the text: as §1, §2, §3, §4

Sequence of WRN helicase (core helicase motif aa N517-P1238) (Q14191 517-1238): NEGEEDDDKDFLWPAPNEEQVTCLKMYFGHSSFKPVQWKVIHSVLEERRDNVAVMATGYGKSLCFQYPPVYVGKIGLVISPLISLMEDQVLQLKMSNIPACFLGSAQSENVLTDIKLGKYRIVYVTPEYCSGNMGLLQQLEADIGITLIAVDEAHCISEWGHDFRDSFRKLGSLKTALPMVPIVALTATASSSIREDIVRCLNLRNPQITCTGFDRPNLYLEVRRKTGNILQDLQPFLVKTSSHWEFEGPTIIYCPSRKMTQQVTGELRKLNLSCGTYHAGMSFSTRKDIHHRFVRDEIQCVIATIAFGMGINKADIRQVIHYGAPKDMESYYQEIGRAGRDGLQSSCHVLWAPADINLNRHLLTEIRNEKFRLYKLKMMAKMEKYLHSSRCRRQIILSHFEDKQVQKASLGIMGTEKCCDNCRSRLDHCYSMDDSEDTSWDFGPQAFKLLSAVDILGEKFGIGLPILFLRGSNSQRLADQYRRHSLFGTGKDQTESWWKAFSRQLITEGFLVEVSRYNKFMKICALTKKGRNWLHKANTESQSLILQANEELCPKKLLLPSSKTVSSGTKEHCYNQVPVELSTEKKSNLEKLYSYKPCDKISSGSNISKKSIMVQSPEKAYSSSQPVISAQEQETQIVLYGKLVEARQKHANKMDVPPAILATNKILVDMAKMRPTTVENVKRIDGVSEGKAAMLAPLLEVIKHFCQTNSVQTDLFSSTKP

As for `Cc1cc(C(F)(F)F)ccc1NC(=O)[C@@H]1C[C@H](C)c2c(N3CCN(C(=O)c4ncccc4O)CC3)c(=O)n3nc(C4=CCOCC4)nc3n21` [Example 15B, (7S,9S)-2-(3,6-dihydro-2H-pyran-4-yl)-6-(4-(3-hydroxypicolinoyl)piperazin-1-yl)-7-methyl-N-(2-methyl-4-(trifluoromethyl)phenyl)-5-oxo-5,7,8,9-tetrahydropyrrolo[1,2-c][1,2,4]triazolo[1,5-a]pyrimidine-9-carboxamide], in assay [1], it took 18000 nM to reach half-maximal inhibition (IC50). The concentration for 50% growth inhibition (GI50) (usually the concentration that inhibits growth by half) in assay [2] is 8000 nM; in assay [3], over 10000 nM.

Consider `C[C@@H]1C[C@H](C(=O)Nc2ccc(C(F)(F)F)cc2Cl)n2c1c(N1CCN(C(=O)c3ncccc3O)CC1)c(=O)n1nc(C3=CCOCC3)nc21` [Example 11, (7R,9R)—N-(2-chloro-4-(trifluoromethyl)phenyl)-2-(3,6-dihydro-2H-pyran-4-yl)-6-(4-(3-hydroxypicolinoyl)piperazin-1-yl)-7-methyl-5-oxo-5,7,8,9-tetrahydropyrrolo[1,2-c][1,2,4]triazolo[1,5-a]pyrimidine-9-carboxamide], for which, in assay [1], half-maximal inhibition (IC50) required 50 nM. The 50% growth inhibitory concentration (GI50) in assay [2] is 40 nM; in assay [3] it was over 10000 nM.

`C[C@@H]1C[C@H](C(=O)Nc2ccc(C(F)(F)F)cc2Cl)n2c1c(N1CCN(C(=O)c3nccc(Cl)c3O)CC1)c(=O)n1nc(N3CCOCC3)nc21` [Example 1A, (7R,9R)-6-(4-(4-chloro-3-hydroxypicolinoyl)piperazin-1-yl)-N-(2-chloro-4-(trifluoromethyl)phenyl)-7-methyl-2-morpholino-5-oxo-5,7,8,9-tetrahydropyrrolo[1,2-c][1,2,4]triazolo[1,5-a]pyrimidine-9-carboxamide]: half-maximal inhibition in assay [1] (IC50) required 20 nM. Further, the GI50 was 40 nM in assay [2] and over 10000 nM in assay [3].

Turning to `C[C@@H]1C[C@H](C(=O)Nc2ccc(C(F)(F)F)cc2Cl)n2c1c(N1CCN(C(=O)c3ncc4c(c3O)OCC4)CC1)c(=O)n1nc(C3=CCOCC3)nc21` [Example 5A, (7R,9R)—N-(2-chloro-4-(trifluoromethyl)phenyl)-2-(3,6-dihydro-2H-pyran-4-yl)-6-(4-(7-hydroxy-2,3-dihydrofuro[3,2-c]pyridine-6-carbonyl)piperazin-1-yl)-7-methyl-5-oxo-5,7,8,9-tetrahydropyrrolo[1,2-c][1,2,4]triazolo[1,5-a]pyrimidine-9-carboxamide], half-maximal inhibition in assay [1] (IC50) was put at 20 nM. Besides, the values for the 50% growth inhibitory concentration (GI50) in assay [2] and in assay [3] were 30 nM and over 10000 nM, respectively.

As for `Cc1ncnc(C(=O)N2CCN(c3c4n(c5nc(C6=CCOCC6)nn5c3=O)[C@H](C(=O)Nc3ccc(C(F)(F)F)cc3Cl)C[C@H]4C)CC2)c1O` [Example 14D, (7R,9S)—N-(2-chloro-4-(trifluoromethyl)phenyl)-2-(3,6-dihydro-2H-pyran-4-yl)-6-(4-(5-hydroxy-6-methylpyrimidine-4-carbonyl)piperazin-1-yl)-7-methyl-5-oxo-5,7,8,9-tetrahydropyrrolo[1,2-c][1,2,4]triazolo[1,5-a]pyrimidine-9-carboxamide], the IC50 (as a rule, the concentration needed to halve the response being measured) in assay [1] was 1000 nM. Besides, the GI50 in assay [2] is 700 nM; in assay [3], over 10000 nM.

In the case of `O=C(Nc1ccc(C(F)(F)F)cc1)[C@@H]1CCc2c(N3CCN(C(=O)c4ncccc4O)CC3)c(=O)n3nc(C4=CCOCC4)nc3n21` [Example 23B, (S)-2-(3,6-dihydro-2H-pyran-4-yl)-6-(4-(3-hydroxypicolinoyl)piperazin-1-yl)-5-oxo-N-(4-(trifluoromethyl)phenyl)-5,7,8,9-tetrahydropyrrolo[1,2-c][1,2,4]triazolo[1,5-a]pyrimidine-9-carboxamide], the IC50 in assay [1] is 69000 nM. The 50% growth inhibitory concentration (GI50) in assay [2] and in assay [3] was over 10000 nM each time.

`Cc1ncnc(C(=O)N2CCN(c3c4n(c5nc(C6=CCOCC6)nn5c3=O)[C@@H](C(=O)Nc3ccc(C(F)(F)F)cc3Cl)C[C@@H]4C)CC2)c1O` [Example 14C, (7S,9R)—N-(2-chloro-4-(trifluoromethyl)phenyl)-2-(3,6-dihydro-2H-pyran-4-yl)-6-(4-(5-hydroxy-6-methylpyrimidine-4-carbonyl)piperazin-1-yl)-7-methyl-5-oxo-5,7,8,9-tetrahydropyrrolo[1,2-c][1,2,4]triazolo[1,5-a]pyrimidine-9-carboxamide]: in assay [1], half-maximal inhibition (IC50) required 100 nM. The figures for the GI50 in assay [2] and in assay [3] were 300 nM and over 10000 nM, respectively.

In the case of `Cc1cc(F)c(O)c(C(=O)N2CCN(c3c4n(c5nc(N6CCOCC6)nn5c3=O)[C@H](C(=O)Nc3ccc(C(F)(F)F)cc3Cl)C[C@@H]4C)CC2)n1` [Example 3B, (7S,9S)—N-(2-chloro-4-(trifluoromethyl)phenyl)-6-(4-(4-fluoro-3-hydroxy-6-methylpicolinoyl)piperazin-1-yl)-7-methyl-2-morpholino-5-oxo-5,7,8,9-tetrahydropyrrolo[1,2-c][1,2,4]triazolo[1,5-a]pyrimidine-9-carboxamide], 6000 nM corresponded to half-maximal inhibition in assay [1] (IC50). The 50% growth inhibitory concentration (GI50) in assay [2] and in assay [3] was over 10000 nM in each case.
